Reference: US7794753B2, “Synergistic hepatoprotective composition and a method thereof” (Council of Scientific and Industrial Research, priority 2003, dated 2010)

Columns and labels:
[1] = test system: paracetamol (APAP) induced hepatic injury; test: Hepatoprotective activity (in vivo) of synergistic formulation and Silymarin against paracetamol (APAP) induced hepatic injury in mice (prophylactic study); conditions: 50 mg/kg p.o. + APAP
Description: All the list materials were administered P.O. routes in a uniform dose level of 50 mg kg-1. Formulation is extremely safe having a therapeutic index of >40. No mortality was recorded up to a dose of 2 g-kg-1 p.o. in mice.

[2] = test system: Acetaminophen (APAP) induced hepatic injury; test: Hepatoprotective activity (in vivo) of TCA and silymarin (Pre-treatment), diethyl-ether plus Acetaminophen (APAP) (prophylactic study); design: species or system Mice: Swiss albino; conditions: 50 mg/kg p.o. fed at 72 h, 48 h, 24 h, 1 h before diethyl-ether and 1 h after APAP 200 mg/kg i.p.
[3] = After 72 hrs, mostly by urinary excretion; cited from earlier work
[4] = test system: Paracetamol (APAP) induced hepatic injury; format: in vivo; conditions: prophylactic
Description: […] Formulation is extremely safe having a therapeutic index of >40. No mortality was recorded up to a dose of 2 g-kg-1 p.o. in mice.

[5] = test system: restinosis following Angio plasty; conditions: animal model, compared with fish oil; cited from earlier work

SMILES | S. Albumin, percent hepatoprotective activity [1] | Serum Bilirubin, percent hepatoprotective activity [2] | excreted [3] | Hepatic GSH (glutathione) ([4]; 50 mg kg−1 + APAP) | Serum TG, percent hepatoprotective activity (in parentheses) ([4]; 100 mg kg−1 + APAP) | preventing the incidence and severity of restinosis following Angio plasty [5]
CCCCCCCC/C=C/CCCCCCCCCCCCCC(=O)O [TCA, trans-tetracos-15-enoic acid] | 56.35% | 56.35% | – | – | – | –
C=C1CC[C@@H]2[C@](C)(CO)[C@H](O)CC[C@@]2(C)[C@@H]1C/C=C1/C(=O)OC[C@H]1O [AP, andrographolide] | – | – | ~90% | 4.48 ± 0.25 μmole GSH/g liver | (63.00) % | twice as effective as fish oil
